Measured values: patent US20260008746A1, “CATIONIC LIPID COMPOUND WITH HIGH EFFICIENCY, LOW TOXICITY AND STABLE EXPRESSION, AND COMPOSITION COMPRISNG SAME” (HANGZHOU TIANLONG PHARMACEUTICAL CO., LTD, priority 2023, published 2026)

How the values were obtained:
293T cells [1] = assay: Fluorescent detection of Fluc-mRNA (cell transfection efficiency of LNP formulations); format: cell-based; details: for Relative light unit (RLU): LNP formulation containing 0.3 μg Fluc-mRNA, 96-well plate, 24 hours; for Multiples (YK-107): RLU of YK-107 / RLU of named substance; for Multiples (YK-108): RLU of YK-108 / RLU of named substance; for Ratio relative to SM-102: RLU of named substance / RLU of SM-102; for difference from SM-102 in Fluc-mRNA fluorescence (GraphPad Prism analysis): statistical comparison with SM-102
How it was run: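 293T cells seeded at 10,000 per well, cultured overnight, then given LNP carrying 0.3 μg Fluc-mRNA (cationic:neutral:structured:PEG-lipid 49:10:39.5:1.5 molar). Incubated 24 h. Luciferase signal read with kit reagent on an IVIS imaging system.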

293T cells [2] = assay: Cell survival rate determination (CCK-8); format: cell-based; details: for Cell survival rate (%): LNP formulation containing 1.5 μg Fluc-mRNA, 24 hours, CCK-8, absorbance at 450 nm; for cell survival rate lower than that of YK-101: cell survival rate of YK-101 minus that of named substance; for cell survival rate lower than that of YK-107: cell survival rate of YK-107 minus that of named substance; for cell survival rate lower than that of YK-108: cell survival rate of YK-108 minus that of named substance
How it was run: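 293T cells were seeded overnight at 10,000 cells/well in 96-well plates, then exposed for 24 h to LNP containing 1.5 μg Fluc-mRNA (cationic:neutral:structural:polymer-conjugated lipid, 49:10:39.5:1.5 molar) or to Lipofectamine 3000. Viability was read by CCK-8, 1 h incubation, absorbance 450 nm.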

[3] = Determination of particle size and polydispersity index (PDI) of lipid nanoparticles by dynamic light scattering; format: physicochemical; details: LNP formulation of named cationic lipid/DSPC/cholesterol/DMG-PEG2000 49:10:39.5:1.5; for Particle size (nm): 90° scattering angle, 25° C
How it was run: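 LNPs of cationic lipid/DSPC/cholesterol/DMG-PEG2000 (49:10:39.5:1.5 mol%), lipid:mRNA 15:1 w/w, carrying eGFP or Fluc mRNA, made by ethanol injection into citrate buffer pH 4–5, sonicated, PBS-exchanged by ultrafiltration. Size and PDI by dynamic light scattering after dilution in RNase-free water, 90° angle, 25 °C, triplicate.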

BALB/C mice = assay: In vivo imaging of Fluc-mRNA expression in mice delivered by LNP formulations; details: for average radiation intensity, 6 h / average radiation intensity, 24 h / average radiation intensity, 48 h / average radiation intensity, 7 d: LNP containing 10 pg Fluc-mRNA, intramuscular, female BALB/C mice
How it was run: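 Female BALB/C mice (4-6 weeks, 17-19 g) received LNP carrying […] Fluc-mRNA intramuscularly. Substrate was given intraperitoneally at 6 h, 24 h, 48 h and 7 d, and average radiance was imaged by IVIS 5 min later.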

[4] = highest multiple, time point not stated

SMILES | Relative light unit (RLU) (293T cells [1]) | Ratio relative to SM-102 (293T cells [1]) | difference from SM-102 in Fluc-mRNA fluorescence (GraphPad Prism analysis) (293T cells [1]) | Cell survival rate (%) (293T cells [2]) | cell survival rate lower than that of YK-101 (293T cells [2]) | cell survival rate lower than that of YK-107 (293T cells [2]) | cell survival rate lower than that of YK-108 (293T cells [2]) | PDI(%) [3] | Particle size (nm) [3] | average radiation intensity of YK-101, times that of named substance (BALB/C mice; 6 h) | average radiation intensity of YK-107, times that of named substance (BALB/C mice; 6 h) | average radiation intensity of YK-108, times that of named substance (BALB/C mice; 6 h) | average radiation intensity of YK-101, times that of named substance (BALB/C mice; 24 h) | average radiation intensity of YK-107, times that of named substance (BALB/C mice; 24 h) | average radiation intensity of YK-108, times that of named substance (BALB/C mice; 24 h) | average radiation intensity of YK-101, times that of named substance (BALB/C mice; 48 h) | average radiation intensity of YK-107, times that of named substance (BALB/C mice; 48 h) | average radiation intensity of YK-108, times that of named substance (BALB/C mice; 48 h) | average radiation intensity of YK-101, times that of named substance (BALB/C mice; 7 d) | average radiation intensity of YK-107, times that of named substance (BALB/C mice; 7 d) | further results
CCCCCCCCCCOC(=O)CCCN(CCO)CCCCC(=O)OCCC(CCCCCC)CCCCCC [YK-104] | 1693707 RLU | 1.10 | no significant difference | 73.55% | 16.57% | 16.90% | 16.31% | 26.9% | 200 nm | 2.0 times | 2.1 times | 2.7 times | 9.3 times | 11.4 times | 12.3 times | 5.6 times | 6.8 times | 7.0 times | 1.5 times | 1.7 times | Multiples (YK-107) (293T cells [1]): 13.20; Multiples (YK-108) (293T cells [1]): 14.56; average radiation intensity of YK-108, times that of named substance (BALB/C mice; 7 d): 1.8 times; average radiation intensity, 6 h (BALB/C mice; 6 h): 747000; average radiation intensity, 24 h (BALB/C mice; 24 h): 113940; average radiation intensity, 48 h (BALB/C mice; 48 h): 33095; average radiation intensity, 7 d (BALB/C mice; 7 d): 7969
CCCCCCCCCC(=O)OCCCCN(CCO)CCCCCC(=O)OCC(CCCCCCCC)CCCCCCCC [YK-106] | 1628063 RLU | 1.06 | no significant difference | 59.59% | 30.53% | 30.86% | 30.27% | 14.4% | 140 nm | 2.2 times | 2.3 times | 2.9 times | 10.0 times | 12.3 times | 13.3 times | 5.6 times | 6.9 times | 7.0 times | 1.7 times | 1.9 times | Multiples (YK-101) (293T cells [1]; RLU of YK-101 / RLU of named substance): 12.49; Multiples (YK-107) (293T cells [1]): 13.73; Multiples (YK-108) (293T cells [1]): 15.15; average radiation intensity of YK-108, times that of named substance (BALB/C mice; 7 d): 2.0 times; average radiation intensity, 6 h (BALB/C mice; 6 h): 683840; average radiation intensity, 24 h (BALB/C mice; 24 h): 105776; average radiation intensity, 48 h (BALB/C mice; 48 h): 32940; average radiation intensity, 7 d (BALB/C mice; 7 d): 7052
CCCCCCCCCC(=O)OCCCCN(CCO)CCCCCC(=O)OCCC(CCCCCC)CCCCCC [YK-109] | 717431 RLU | 0.47 | no significant difference | 69.45% | 20.67% | 21.00% | 20.41% | 28.2% | 205 nm | 2.4 times | 2.6 times | 3.2 times | 11.2 times | 13.8 times | 14.8 times | 10.1 times | 12.2 times | 12.5 times | 2.5 times | 2.7 times | average radiation intensity of YK-108, times that of named substance (BALB/C mice; 7 d): 2.9 times; average radiation intensity, 6 h (BALB/C mice; 6 h): 625040; average radiation intensity, 24 h (BALB/C mice; 24 h): 94720; average radiation intensity, 48 h (BALB/C mice; 48 h): 18496; average radiation intensity, 7 d (BALB/C mice; 7 d): 4948; expression amount of mRNA in mice of YK-101, times that of named substance (BALB/C mice; [4]): up to 11 times; expression amount of mRNA in mice of YK-107, times that of named substance (BALB/C mice; [4]): ≤ 13 times
